From patent publication US8759334B2, “Compounds useful for the treatment of metabolic and inflammatory diseases” (Galapagos NV, priority 2011, dated 2014)

Experiments:
[1] = molecular target: T1, GPR43 (Homo sapiens, UniProt O15552); experiment: [35S]GTPγS binding assay; format: biochemical; details: membranes from stable cell line over expressing GPR43; sodium acetate at EC80
T1 construct: expressed in transfected cells
T1 sequence (O15552 1-330): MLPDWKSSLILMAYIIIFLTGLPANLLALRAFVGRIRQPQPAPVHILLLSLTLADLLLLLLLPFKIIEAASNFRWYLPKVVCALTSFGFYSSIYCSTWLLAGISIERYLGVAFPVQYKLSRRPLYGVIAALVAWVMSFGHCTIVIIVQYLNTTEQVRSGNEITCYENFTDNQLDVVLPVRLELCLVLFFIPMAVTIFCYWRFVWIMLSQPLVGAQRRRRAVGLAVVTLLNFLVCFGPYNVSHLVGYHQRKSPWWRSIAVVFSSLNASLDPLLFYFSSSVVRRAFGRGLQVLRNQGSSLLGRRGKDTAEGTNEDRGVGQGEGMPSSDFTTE
Description: The assay was performed in a 96 well plate where the following reagents were added. […] In a last step, 30 μL of a mixture consisting of membranes-GTPγS-SpA beads was added (mixture consists of 10 μg/well membranes derived from stable cell line over expressing GPR43 (membranes were pre-incubated with 3 μM GDP for 15 minutes at 4° C.), 0.1 nM [35S]GTPγS (Perkin Elmer, NEG030) and 0.5 mg/well PVT-WGA SpA beads (perkin Elmer, RPNQ0001)). […] Reactions were incubated for 240 minutes at room temperature followed by centrifugation at 2000 rpm for 15 minutes. Plates were read on a Topcount immediately after centrifugation (readout time, 1 minute/well).

[2] = test system: human neutrophils; experiment: Neutrophil migration assay; format: cell-based; details: neutrophils from human buffy coat, migration towards sodium acetate, read-out: human neutrophil migration inhibition EC50
Description: G Protein-Coupled Receptor 43 (GPR43) was described as an essential player in the process of neutrophil recruitment during intestinal inflammation.
The effect of agonists or antagonists for GPR43 can therefore be assayed in a neutrophil migration test. In the neutrophil migration assay, neutrophils, isolated from buffy coats from human volunteers, are treated with a compound for 30 minutes. Subsequently, the neutrophils are transferred to the upper wells of a Corning HTS transwell 96 permeable support system, of which the lower wells are filled with a sodium acetate solution.
The ACD buffer consists of 140 mM citric acid, 200 mM sodium citrate and 220 mM dextrose. The 6% dextran/0.9% NaCl solution consists of 15 g dextran T2000 and 2.25 g NaCl dissolved in 250 mL H2O.
A human buffy coat is diluted with an equal volume of ice cold DPBS. 20 mL of the diluted buffy coat is gently mixed with 4 mL of ACD buffer. Then, 12 mL of the 6% dextran/0.9% NaCl solution is added to the mixture and the samples are inverted gently up to 20 times. The total volume is transferred to a new recipient and incubated at room temperature for 1 h for complete separation of the two phases to occur. The yellowish supernatant is then transferred to a clean centrifugation tube and centrifuged for 12 minutes at 1300 rpm and 4° C. After centrifugation, the supernatant is discarded and the remaining cell pellet is rapidly resuspended in 12 mL of ice-cold H2O for red blood cell lysis to occur. After 20 seconds, 4 mL of ice-cold 0.6 M KCl is added. Samples are mixed carefully and centrifuged for 6 minutes at 1300 rpm, 4° C. The supernatant is discarded and the red blood cell lysis procedure is repeated one more time. […] After centrifugation for 12 min at 1300 rpm, 4° C., the supernatant is removed and the cell pellet, containing the neutrophils, is resuspended in 25 mL chemotaxis buffer.
A cell suspension of 8.9×10^6 cells per milliliter is prepared. 20 μL of compound solution in chemotaxis buffer is added to 180 μl cell suspension. The mixture is incubated at 37° C. for 30 minutes with Intermediate resuspension of the cells after 15 minutes. […] The receiver well of the transwell system is then filled with 200 μL chemotaxis buffer containing compound and chemotactic agent (sodium acetate). After incubation at 37° C. in 5% CO2 for 1 h, the upper plate of the transwell system is removed and the cell suspension in the receiver plate is transferred to a 96-well V-bottom plate. 50 μL of DPBS is added to the receiver plate to prevent remaining cells from drying out. The V-bottom plate is centrifuged for 6 minutes at 1500 rpm. The supernatant is removed and the cells are resuspended in 50 μL DPBS. The cells are then transferred back to the receiver plate of the transwell system. […] The plate is incubated for 10 minutes in the dark, while shaking. 170 μL of cell lysate is then transferred to a white 96-well plate and luminescence is measured. The detected luminescent signal is considered as linearly related to the number of migrated cells.

[3] = molecular target: T1, GPR43; experiment: Calcium mobilization assay with probenecid; format: cell-based; details: GPR43 stably expressing cells; triggered with sodium acetate at EC80; 2.5 mM probenecid; read-out: GPR43 assay with probenicid IC50
How it was run: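 Cells stably expressing GPR43 plated overnight at 37 °C, then loaded 2 h with Calcium 4 dye plus 2.5 mM probenecid. […]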

[4] = molecular target: T1, GPR43; experiment: Calcium mobilization assay without probenecid; format: cell-based; details: GPR43 stably expressing cells, triggered with sodium acetate at EC80, read-out: GPR43 assay without probenicid IC50
How it was run: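 In GPR43-expressing cells loaded with a Calcium 4 dye, antagonism was tested by a 15 min compound preincubation at 37 °C, then a sodium acetate challenge at EC80, with Ca-flux read on injection. For agonism, Ca-flux was recorded directly on compound injection.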

| IC50 [1] | EC50 [2] | IC50 [3] | IC50 [4] | Structure (SMILES) |
| --- | --- | --- | --- | --- |
| > 501 nM | 0.01 to 100 nM | 0.01 to 100 nM |  | CC1(C(=O)N(CCCC(=O)O)Cc2ccc3cc[nH]c3c2)CCN1C(=O)c1csc2ccccc12 (stereo not shown) [Compound 134, 4-[[1-(Benzo[b]thiophene-3-carbonyl)-2-methyl-azetidine-2-carbonyl]-(1H-indol-6-ylmethyl)-amino]-butyric acid] |
| 101 to 500 nM | 0.01 to 100 nM | 0.01 to 100 nM |  | CC1(C(=O)N(CCCC(=O)O)Cc2ccc3cc[nH]c3c2)CCN1C(=O)Cc1csc2ccccc12 (stereo not shown) [Compound 128, 4-[[1-(2-Benzo[b]thiophen-3-yl-acetyl)-2-methyl-azetidine-2-carbonyl]-(1H-indol-6-ylmethyl)-amino]-butyric acid] |
| > 501 nM | 101 to 500 nM | 0.01 to 100 nM |  | CC1(C(=O)N(CCC(=O)O)Cc2cccc(Cl)c2)CCN1C(=O)c1csc2ccccc12 (stereo not shown) [Compound 169, 3-[[1-(Benzo[b]thiophene-3-carbonyl)-2-methyl-azetidine-2-carbonyl]-(3-chloro-benzyl)-amino]-propionic acid] |
| > 501 nM | 0.01 to 100 nM | 0.01 to 100 nM |  | CC1(C(=O)N(CCC(=O)O)Cc2ccc(Cl)cc2)CCN1C(=O)c1csc2ccccc12 (stereo not shown) [Compound 155, 3-[[1-(Benzo[b]thiophene-3-carbonyl)-2-methyl-azetidine-2-carbonyl]-(4-chloro-benzyl)-amino]-propionic acid] |
| 101 to 500 nM |  | > 1000 nM | 0.01 to 100 nM | CC1(C(=O)N(CCO)Cc2ccc(Cl)cc2)CCN1C(=O)Cc1csc2ccccc12 (stereo not shown) [Compound 67, 1-(2-Benzo[b]thiophen-3-yl-acetyl)-2-methyl-azetidine-2-carboxylic acid (4-chloro-benzyl)-(2-hydroxy-ethyl)-amide] |
| 101 to 500 nM | 0.01 to 100 nM | 0.01 to 100 nM |  | CC1(C(=O)N(CCCC(=O)O)Cc2ccc(Cl)cc2)CCN1C(=O)c1csc2ccccc12 (stereo not shown) [Compound 115, 4-[[1-(Benzo[b]thiophene-3-carbonyl)-2-methyl-azetidine-2-carbonyl]-(4-chloro-benzyl)-amino]-butyric acid] |
| 51 to 100 nM | 0.01 to 100 nM | 0.01 to 100 nM |  | CC1(C(=O)N(CCCC(=O)O)Cc2ccc(C(F)(F)F)cc2)CCN1C(=O)Cc1csc2ccccc12 (stereo not shown) [Compound 144, 4-[[1-(2-Benzo[b]thiophen-3-yl-acetyl)-2-methyl-azetidine-2-carbonyl]-(4-trifluoromethyl-benzyl)-amino]-butyric acid] |
| 101 to 500 nM |  | 0.01 to 100 nM |  | C[C@@H](c1ccc(Cl)cc1)N(CCCC(=O)O)C(=O)[C@@]1(C)CCN1C(=O)c1csc2ccccc12 [Compound 198, 4-{[(R)-1-(Benzo[b]thiophene-3-carbonyl)-2-methyl-azetidine-2-carbonyl]-[(S)-1-(4-chloro-phenyl)-ethyl]-amino}-butyric acid] |
| 101 to 500 nM |  | 0.01 to 100 nM |  | CCC1(C(=O)N(CCCC(=O)O)Cc2cccc(Cl)c2)CCN1C(=O)c1csc2ccccc12 (stereo not shown) [Compound 195, 4-[[1-(Benzo[b]thiophene-3-carbonyl)-2-ethyl-azetidine-2-carbonyl]-(3-chloro-benzyl)-amino]-butyric acid] |
